Test results reported in ChEMBL document CHEMBL1201862, “PubChem BioAssay data set” (2004).
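Step 1: Grow cells in 96-well plates. Step 2: Expose to compound for 48 hours at 5 concentrations. Step 3: Interpolate endpoints linearly; if unreached, use highest concentration. GI50: concentration for 50% inhibition of growth.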 Active and inactive are the calls of the source. No stated cut-off is given here; in the data, active = GI50 up to about 1.1 µM and inactive = higher.

Assays:
Experiment in all cases: NCI-60 cell line screen, 48 h
[1] = system: CAKI-1
[2] = system: CCRF-CEM
[3] = system: COLO 205
[4] = system: HCC 2998
[5] = system: HOP-92
[6] = system: IGROV-1
[7] = system: KM12
[8] = system: MDA-MB-435
[9] = system: Malme-3M
[10] = system: NCI-H460
[11] = system: NCI-H522
[12] = system: NCI/ADR-RES
[13] = system: SK-MEL-28
[14] = system: SK-MEL-5
[15] = system: SN12C
[16] = system: SNB-75
[17] = system: UACC-62
[18] = system: UO-31
[19] = system: NCI-H226
[20] = system: OVCAR-4

Measured: GI50

N#CC1=C(N)C(C#N)(C#N)C(c2ccc(F)cc2)C=C1C1CC1 (stereo not given)
inactive: [1] 15 µM | [2] 4.71 µM | [3] 12.4 µM | [4] 12.8 µM | [5] 11.9 µM | [6] 12.9 µM | [7] 4.14 µM | [8] 3.22 µM | [9] 11.5 µM | [10] 5.2 µM | [11] 3.78 µM | [12] 14.5 µM | [13] 12.4 µM | [14] 4.46 µM | [15] 2.72 µM | [16] 6 µM | [17] 8.24 µM | [18] 14 µM

Nc1ncnc2c1sc1nc3ccccc3n12
inactive: [1] 33.7 µM | [2] 19.8 µM | [3] > 100 µM | [4] > 44.8 µM | [5] > 100 µM | [6] 13.4 µM | [7] > 45 µM | [8] > 100 µM | [9] > 71.3 µM | [19] 51.1 µM | [10] 53.1 µM | [11] > 43.2 µM | [12] > 83 µM | [20] > 100 µM | [13] > 100 µM | [14] 52 µM | [15] > 100 µM | [17] 31 µM | [18] > 77.8 µM

Nc1c(Br)cc2c(c1Br)Cc1cc(Br)ccc1-2
inactive: [2] > 100 µM | [3] > 100 µM | [4] > 100 µM | [5] > 100 µM | [7] > 100 µM | [8] > 100 µM | [19] > 100 µM | [10] > 100 µM | [11] > 100 µM | [12] > 100 µM | [20] > 100 µM | [13] > 100 µM | [14] > 100 µM | [15] > 100 µM | [16] > 100 µM | [18] > 100 µM

C[C@]12C[C@H](O)[C@H]3[C@@H](CCC4=CC(=O)CC[C@@]43C)[C@@H]1CC[C@@H]2c1csc(-c2ccccc2)n1
inactive: [1] 38.4 µM | [3] > 28 µM | [5] 27.8 µM | [6] > 68.5 µM | [7] > 46.7 µM | [8] > 46.3 µM | [9] > 44.2 µM | [19] > 58.1 µM | [10] 5.85 µM | [11] 4.16 µM | [12] 46.6 µM | [20] 23.2 µM | [13] > 100 µM | [15] 59.7 µM | [16] 26.4 µM | [17] 29.4 µM

COc1ccccc1NC(=O)/C(Cc1nc2ccc([N+](=O)[O-])cc2nc1O)=N\NC(=O)C[N+](C)(C)C
inactive: [1] 70.3 µM | [2] 13.3 µM | [3] 37.2 µM | [4] 29.6 µM | [5] > 100 µM | [6] 55.3 µM | [7] 31.8 µM | [8] 20 µM | [19] > 100 µM | [10] 38.1 µM | [11] 28.3 µM | [12] 38.6 µM | [20] > 100 µM | [13] > 100 µM | [14] 26.4 µM | [15] > 100 µM | [16] > 100 µM | [17] 62.5 µM | [18] 25.7 µM

O1C2C1C1OC1C1OC1C1OC21 (stereo not given)
inactive: [1] > 100 µM | [3] > 100 µM | [4] > 100 µM | [5] > 100 µM | [7] > 100 µM | [8] > 100 µM | [9] > 100 µM | [19] > 100 µM | [11] > 100 µM | [12] > 100 µM | [20] > 100 µM | [13] > 100 µM | [14] > 100 µM | [15] > 100 µM | [16] 11.6 µM | [17] > 100 µM | [18] > 100 µM
